Measured values reported in ChEMBL document CHEMBL1201862, “PubChem BioAssay data set” (2004).
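Tested at 5 concentrations; 48 h exposure; 96-well plates; endpoints linearly interpolated, else capped at highest concentration. Here, GI50 denotes the concentration required for 50% inhibition of growth.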 Activity calls are given as the source filed them. No stated cut-off is given here; in the data, active = GI50 up to about 1.1 µM and inactive = higher.

What was measured:
Test in all cases: NCI-60 cell line screen, 48 h
SW-620 = system: SW-620
RXF 393 = system: RXF 393
K562 = system: K562
HCT-116 = system: HCT-116
HT-29 = system: HT-29
HOP-92 = system: HOP-92
786-0 = system: 786-0
COLO 205 = system: COLO 205
SK-MEL-5 = system: SK-MEL-5
MDA-N = system: MDA-N
NCI-H23 = system: NCI-H23
TK-10 = system: TK-10
SK-OV-3 = system: SK-OV-3
SF-295 = system: SF-295
NCI-H460 = system: NCI-H460
CCRF-CEM = system: CCRF-CEM
MCF7 = system: MCF7
OVCAR-8 = system: OVCAR-8
HOP-62 = system: HOP-62
OVCAR-4 = system: OVCAR-4
M14 = system: M14
HCC 2998 = system: HCC 2998
Malme-3M = system: Malme-3M
A549 = system: A549
CAKI-1 = system: CAKI-1
SNB-19 = system: SNB-19
SF-539 = system: SF-539
UACC-62 = system: UACC-62
HL-60 = system: HL-60
DU-145 = system: DU-145
IGROV-1 = system: IGROV-1
SK-MEL-28 = system: SK-MEL-28
MOLT-4 = system: MOLT-4
HCT-15 = system: HCT-15
NCI/ADR-RES = system: NCI/ADR-RES
Hs-578T = system: Hs-578T
UACC-257 = system: UACC-257
OVCAR-5 = system: OVCAR-5
SNB-75 = system: SNB-75
MDA-MB-435 = system: MDA-MB-435
SN12C = system: SN12C
A498 = system: A498
NCI-H522 = system: NCI-H522
UO-31 = system: UO-31
BT-549 = system: BT-549
SF-268 = system: SF-268
OVCAR-3 = system: OVCAR-3
U-251 = system: U-251
PC-3 = system: PC-3
KM12 = system: KM12
EKVX = system: EKVX
LOX IMVI = system: LOX IMVI
ACHN = system: ACHN
T47D = system: T47D
MDA-MB-231 = system: MDA-MB-231
SK-MEL-2 = system: SK-MEL-2
NCI-H226 = system: NCI-H226
RPMI-8226 = system: RPMI-8226
SR = system: SR

Measured: GI50

COc1ccc(C(NS(=O)(=O)c2ccc(C)cc2)c2c(C(CBr)OC)c3ccccc3n2S(=O)(=O)c2ccccc2)cc1OC (centres undefined)
> 100 µM: HCT-15
inactive: SW-620 > 100 µM | RXF 393 > 100 µM | K562 > 100 µM | HCT-116 > 100 µM | HT-29 > 100 µM | HOP-92 85.5 µM | 786-0 > 100 µM | COLO 205 > 100 µM | SK-MEL-5 > 100 µM | MDA-N > 100 µM | NCI-H23 > 100 µM | TK-10 > 100 µM | SK-OV-3 > 100 µM | SF-295 > 100 µM | NCI-H460 > 100 µM | CCRF-CEM 89.7 µM | MCF7 > 100 µM | OVCAR-8 > 100 µM | HOP-62 > 100 µM | OVCAR-4 > 100 µM | M14 > 100 µM | HCC 2998 > 100 µM | Malme-3M > 100 µM | A549 > 100 µM | CAKI-1 > 100 µM | SNB-19 > 100 µM | SF-539 > 100 µM | UACC-62 > 100 µM | HL-60 > 100 µM | DU-145 > 100 µM | IGROV-1 > 100 µM | SK-MEL-28 > 100 µM | MOLT-4 > 100 µM | NCI/ADR-RES > 100 µM | Hs-578T > 100 µM | UACC-257 > 100 µM | OVCAR-5 > 100 µM | SNB-75 34.7 µM | MDA-MB-435 > 100 µM | SN12C > 100 µM | A498 > 100 µM | NCI-H522 > 100 µM | UO-31 > 100 µM | BT-549 > 100 µM | SF-268 > 100 µM | OVCAR-3 > 100 µM | U-251 > 100 µM | PC-3 > 100 µM | KM12 > 100 µM | EKVX > 100 µM | LOX IMVI > 100 µM | ACHN > 100 µM | T47D > 100 µM | MDA-MB-231 52.8 µM | SK-MEL-2 > 100 µM | NCI-H226 > 100 µM

COc1ccc(OC)c2sc(N3C(=O)/C(=C/c4cccc(Oc5ccccc5)c4)N=C3c3ccccc3)nc12
inactive: SW-620 51.1 µM | RXF 393 > 100 µM | K562 32.1 µM | HCT-116 85.1 µM | HT-29 > 100 µM | HOP-92 > 100 µM | 786-0 > 100 µM | COLO 205 51.8 µM | SK-MEL-5 47.5 µM | MDA-N 38 µM | NCI-H23 > 100 µM | TK-10 > 100 µM | SK-OV-3 > 100 µM | SF-295 > 100 µM | NCI-H460 > 100 µM | CCRF-CEM 29.9 µM | MCF7 35.2 µM | OVCAR-8 76 µM | HOP-62 > 100 µM | OVCAR-4 > 100 µM | M14 > 100 µM | HCC 2998 > 100 µM | Malme-3M > 100 µM | A549 > 100 µM | CAKI-1 > 100 µM | SNB-19 > 100 µM | UACC-62 > 100 µM | HL-60 38 µM | DU-145 > 100 µM | IGROV-1 > 100 µM | RPMI-8226 38.8 µM | SK-MEL-28 > 100 µM | MOLT-4 31.9 µM | NCI/ADR-RES > 100 µM | Hs-578T > 100 µM | UACC-257 71.3 µM | OVCAR-5 > 100 µM | SNB-75 > 100 µM | MDA-MB-435 29.3 µM | SN12C > 100 µM | A498 > 100 µM | NCI-H522 53.7 µM | UO-31 > 100 µM | BT-549 > 100 µM | SF-268 > 100 µM | OVCAR-3 > 100 µM | U-251 92 µM | PC-3 > 100 µM | KM12 70 µM | EKVX > 100 µM | LOX IMVI 65.3 µM | ACHN > 100 µM | T47D 47 µM | MDA-MB-231 > 100 µM | SK-MEL-2 > 100 µM
87.9 µM: HCT-15

CNc1nc(N(C)C)nc(N(C)C)n1
inactive: MDA-N 855 µM | MCF7 771 µM | M14 1210 µM | DU-145 2790 µM | NCI/ADR-RES 1140 µM | Hs-578T 2100 µM | MDA-MB-435 1110 µM | BT-549 1320 µM | PC-3 1580 µM | T47D 578 µM | MDA-MB-231 955 µM | NCI-H226 1120 µM

COC(=O)NC(Nc1ccccn1)(C(F)(F)F)C(F)(F)F
inactive: SW-620 > 100 µM | RXF 393 29.9 µM | K562 > 100 µM | HCT-116 > 100 µM | HT-29 > 100 µM | HOP-92 > 100 µM | 786-0 > 100 µM | SK-MEL-5 > 100 µM | MDA-N > 100 µM | NCI-H23 > 100 µM | TK-10 > 100 µM | SK-OV-3 > 100 µM | NCI-H460 > 100 µM | CCRF-CEM > 100 µM | MCF7 > 100 µM | OVCAR-8 > 100 µM | HOP-62 > 100 µM | M14 > 100 µM | HCC 2998 > 100 µM | Malme-3M > 100 µM | A549 > 100 µM | CAKI-1 > 100 µM | SNB-19 > 100 µM | SF-539 > 100 µM | UACC-62 > 100 µM | HL-60 > 100 µM | DU-145 > 100 µM | IGROV-1 > 100 µM | RPMI-8226 > 100 µM | SK-MEL-28 > 100 µM | MOLT-4 > 100 µM | NCI/ADR-RES > 100 µM | Hs-578T > 100 µM | UACC-257 > 100 µM | OVCAR-5 > 100 µM | SNB-75 > 100 µM | MDA-MB-435 > 100 µM | A498 > 100 µM | NCI-H522 > 100 µM | SR > 100 µM | UO-31 > 100 µM | BT-549 > 100 µM | SF-268 > 100 µM | OVCAR-3 > 100 µM | U-251 > 100 µM | KM12 > 100 µM | EKVX > 100 µM | LOX IMVI > 100 µM | ACHN > 100 µM | T47D > 100 µM | MDA-MB-231 > 100 µM | SK-MEL-2 > 100 µM | NCI-H226 > 100 µM
> 100 µM: HCT-15
